According to paper PMC5142825 (Bioorganic & medicinal chemistry letters, 2016):
Read-outs that look alike come from different tables or passages of the source.

Legend:
[1] = biological target: T1, Porcn (Mus musculus, UniProt Q9JJJ7); experiment: Suppression of Wnt signaling in L-Wnt-STF cells; type: cell-based
T1 sequence (Q9JJJ7 1-461): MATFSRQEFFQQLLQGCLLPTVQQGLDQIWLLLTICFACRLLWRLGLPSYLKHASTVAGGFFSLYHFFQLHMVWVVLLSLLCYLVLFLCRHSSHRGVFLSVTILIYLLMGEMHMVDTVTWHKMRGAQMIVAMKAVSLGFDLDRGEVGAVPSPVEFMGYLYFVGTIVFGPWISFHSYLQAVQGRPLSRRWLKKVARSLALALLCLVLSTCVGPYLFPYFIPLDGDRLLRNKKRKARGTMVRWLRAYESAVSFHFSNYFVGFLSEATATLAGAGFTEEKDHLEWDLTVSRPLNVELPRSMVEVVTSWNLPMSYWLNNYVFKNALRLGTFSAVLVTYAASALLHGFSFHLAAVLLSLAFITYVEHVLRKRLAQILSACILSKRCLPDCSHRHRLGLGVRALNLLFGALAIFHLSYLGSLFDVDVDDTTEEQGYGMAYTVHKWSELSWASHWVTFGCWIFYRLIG

[2] = biological target: T1, Porcn; conditions: L-Wnt-STF cells; cited from earlier work
[3] = murine liver S9 fractions; cited from earlier work
[4] = murine plasma; cited from earlier work
[5] = human plasma; cited from earlier work
[6] = Metabolic stability in murine liver S9 fractions; type: in vitro ADME; conditions: for stability (in words): compared with 6
[7] = Stability in murine plasma; type: in vitro ADME; conditions: compared with 6
[8] = tested on: Dvl2/3 phosphorylation in HeLa cells; experiment: Western blot of Dvl2/3 phosphorylation in HeLa cells; type: cell-based; conditions: 24 h incubation
[9] = tested on: LRP6 phosphorylation in HeLa cells; experiment: Western blot of LRP6 phosphorylation in HeLa cells; type: cell-based; conditions: 24 h incubation

Cc1ccc2nc(NC(=O)CSc3nc4c(c(=O)n3-c3ccccc3)SCC4)sc2c1 [IWP-2, reference compound]
fold decrease of potency relative to 17 ([1]; L-Wnt-STF cells): 5 fold

O=C(CSc1nc2c(c(=O)n1-c1ccccc1)SCC2)Nc1ccc(-c2ccccc2)cn1 [IWP-L6]
fold more potent than 1 (IWP-2) [2]: 60 fold | Half-life [3]: 26 min | Half-life [4]: <5 min | stability (in words) [5]: good stability

O=C(Cn1cc(-c2ccncc2)nn1)Nc1ccc(-c2ccccc2)cn1 [IWP-N3]
stability (in words) [6]: much more stable | stability (in words) [7]: much more stable

Cc1cc(-c2ncc(CC(=O)Nc3ccc(-c4cnccn4)cn3)cc2C)ccn1 [LGK974, reference compound]
EC50 [1]: 0.2 nM

O=C(Cn1nnc(-c2ccncc2)c1-c1ccccc1)Nc1ccc(-c2ccccc2)cn1 [IWP-O1]
times more potent than LGK974 ([1]; L-Wnt-STF cells): 2.5 times | phosphorylation of Dvl2/3 [8]: effectively suppressed | phosphorylation of LRP6 [9]: suppressed | degradation after incubation ([6]; 4 h): did not observe any degradation | stability (in words) [6]: much more stable | stability (in words) [7]: much more stable

O=C(CSc1nnc(-c2ccncc2)n1-c1ccccc1)Nc1ccc(-c2cccnc2)cc1 [IWP-L2]
EC50 [1]: 0.3 nM | stability (in words) [6]: low stability | stability (in words) [7]: low stability

O=C(CSc1nnc(-c2ccncc2)o1)Nc1ccc(-c2cccnc2)cc1 [IWP-L1]
activity against Wnt signaling ([1]; at low micromolar concentrations): inactive
